This is an account of results in patent US20250162990A1, “COMPOUNDS AND METHODS FOR INHIBITING CANCERS OVER-EXPRESSING REPLICATION FACTOR C 40” (RAADYSAN BIOTECH, INC., priority 2022, published 2025).

A word on the EC50: it is the concentration that produces a half-maximal response. Broadly, the inhibition is the relative decrease from the control value, in per cent.

Series [1] deals with MCF10A cells (non-cancerous breast epithelial cells). Nature of the series: Cell viability, ApoLive Glo Multiplex Assay (live-cell protease fluorescence). The format is cell-based. Particulars: 24 hours; for effect on the cell viability of MCF10A cells at lower drug concentrations: concentrations of up to 10 μM; for effect on the cell viability of MCF10A cells: 0.1 nM to 100 μM. As to the method:
(§1) Non-cancerous breast epithelial cells (MCF10A) and TNBC cell line (MDA-MB-231; mesenchymal; originating from a person) were purchased from the ATCC (American Type Culture Collection, Manassas, Virginia). The effect of the 7 SMEs on cell viability and apoptosis, in MDA-MB-231 and MCF10A cell lines, respectively, was determined as follows. The MCF10A and MDA-MB-231 cells were incubated with different concentrations (100 μM, 10 μM, 1 μM, 0.1 μM, 10 nM, 1 nM, 0.1 nM, and DMSO only) of the 7 SMEs for 24 hours at 37° C. Cell viability and apoptosis was estimated using the ApoLive Glo Multiplex Assay kit 29 (Promega, Madison, WI). Live-cell protease fluorescence (cell viability) was measured at 400 Ex/505 Em and caspase3/7 activation (apoptosis) was measured by luminescence on Envision plate reader.

The test system of series [2] is MDA-MB-231 cells (TNBC cell line). The description is as above. The format is cell-based. Particulars: for EC50: Homo sapiens, MDA-MB-231, 24 hours at 37° C., read-out: EC50, inhibition of TNBC cell viability; for inhibited TNBC cell viability: MDA-MB-231, 24 hours, dose-dependent (up to 100 μM). As to the method: as §1
Another series has as its system MDA-MB-231 cells. Put plainly: Apoptosis, caspase3/7 activation, ApoLive Glo Multiplex Assay. The format is cell-based. Particulars: 24 hr, caspase3/7 luminescence. The method, then: as §1
The target of a further series is T1, RFC40 in HEK293 cells (Homo sapiens, UniProt P35250).
T1 construct: endogenous in cells; host or cells: HEK293
T1 sequence (P35250 whole entry): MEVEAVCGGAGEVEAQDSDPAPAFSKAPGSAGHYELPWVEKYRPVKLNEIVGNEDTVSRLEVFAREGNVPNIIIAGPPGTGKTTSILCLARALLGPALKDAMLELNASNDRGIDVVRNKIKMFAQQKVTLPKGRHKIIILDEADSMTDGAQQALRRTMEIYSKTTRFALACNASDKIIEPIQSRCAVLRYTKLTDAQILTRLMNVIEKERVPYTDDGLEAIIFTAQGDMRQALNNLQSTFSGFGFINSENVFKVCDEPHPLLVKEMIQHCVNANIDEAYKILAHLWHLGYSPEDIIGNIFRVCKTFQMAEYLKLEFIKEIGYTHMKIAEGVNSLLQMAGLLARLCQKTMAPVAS
Put plainly: RFC40 protein expression by Western blot. Conditions: 2 different concentrations, 24 hr. The format is cell-based. The method, then: HEK293 cells were plated in 6-well plates and grown until they were 80% confluent. The cells were then treated with RDY00012, in a dose-dependent manner [100 μM, 10 μM, 1 μM, 0.1 μM, 0 μM (DMSO only)], for 24 hours at 37° C. Samples were run 9% SDS-PAGE and Western blot analysis was performed using rabbit polyclonal anti-RFC40 (1:100, Abcepta) and mouse monoclonal anti-β-Actin (1:500, Santa Cruz Tech) primary antibodies, respectively. Following incubation with anti-rabbit, and anti-mouse secondary antibodies, respectively, specific proteins were detected by chemiluminescence.

Series [3] addresses T2, Recombinant human RFC40 protein (Homo sapiens, UniProt P35250).
T2 construct: purchased Origene Technologies (Rockville, MD)
Nature of the series: RFC40 ATPase enzyme activity, ADP-Glo Max Assay. The format is biochemical. Conditions: RFC40 250 nM, ATP 25 μM; for inhibition at 0.0001 µM: 0.1 nM compound, after 90 min pre-incubation, read-out: time-dependent increase in the inhibition of the RFC40 enzyme activity; for inhibition of RFC40 enzyme activity after 30 min of incubation: 30 min pre-incubation at 37° C. The method, then:
FIGS. 15A-B are graphs of RFC40 ATPase activity inhibition. Human recombinant RFC40 (250 nM) was pre-incubated, individually, with different concentrations of compounds labeled RDY00209 and RDY00120 at 37° C. ATP (25 μM) was then added to the mixture and the ATPase enzyme activity of RFC40 was estimated using the ADP-Glo Max Assay. FIG. 15A presents RFC40 enzyme activity after a 30 min incubation with each compound, and FIG. 15B presents RFC40 enzyme activity after a 90 min incubation with each compound.
Method: Biochemical assays were performed to determine the effects of the 2 SMEs RDY00209 and RDY00120 on the enzymatic activity of RFC40. Recombinant human RFC40 protein was purchased from Origene Technologies (Rockville, MD). ATPase enzyme activity of RFC40 was estimated using the ADP-Glo Max Assay kit^32 (Promega, Madison, WI), as per the manufacturer's instructions. RFC40 (250 nM) was pre-incubated, individually, with different concentrations (100 μM, 0.1 μM, 0.1 nM and 0) of RDY00209 and RDY00120 for 30 min and 90 min, respectively, at 37° C. ATP (25 μM) was then added to the mixture and incubated for another 3 hours at 37° C. Luminescence was read on an Envision plate reader.
A general note: ADP-Glo first removes unused ATP, then detects ADP through luciferase.

T2 sequence (P35250 whole entry): as above

Turning to `O=C(O)c1ccc(OCc2ccc3nsnc3c2)cc1` [RDY00012], the “effect on the cell viability of MCF10A cells at lower drug concentrations” value in series [1] is given as “did not affect”. In series [2], the EC50 came to 7.81 µM and the “inhibited TNBC cell viability” value turned out to be 95%. For the same compound, the “induction of apoptosis in MDA-MB-231 cells” value (“induction of apoptosis” below) in the series with MDA-MB-231 cells is “did not induce apoptosis”. Moreover, on RFC40 in HEK293 cells, the “expression of RFC40” value is given as “downregulated the expression of RFC40”.

Turning to `COc1cccc(-c2ccc(=O)n(CCCC(=O)Nc3nnc(C)s3)n2)c1` [RDY00034], the “effect on the cell viability of MCF10A cells at lower drug concentrations” value in series [1] is on record as “did not affect”. In addition, in series [2], the EC50 worked out at 5.42 µM and the “inhibited TNBC cell viability” value worked out at 95%. Besides, the “induction of apoptosis” value in the series on MDA-MB-231 cells is given as “did not induce apoptosis”.

Regarding `O=C(O)c1csc(S(=O)(=O)Nc2cccc3c2CCCC3)c1` [RDY00120], in series [1], the “effect on the cell viability of MCF10A cells” value is listed as “no effect”. Moreover, in series [2], the EC50 stood at 7.14 µM and the “inhibited TNBC cell viability” value is 95%. Also, the “induction of apoptosis” value in the series with MDA-MB-231 cells is recorded as “did not induce apoptosis”. Also, in series [3], the inhibition at 0.0001 µM turned out to be 36.5% and the “inhibition of RFC40 enzyme activity after 30 min of incubation” value is reported as “inhibited the enzyme activity in a dose-dependent manner”.

As to `O=C(O)CNC(=O)CCn1ccc2ccc(Cl)cc21` [RDY00209], the “effect on the cell viability of MCF10A cells” value in series [1] is “no effect”. Besides, in series [2], the EC50 came to 6.92 µM and the “inhibited TNBC cell viability” value was determined as 95%. The “induction of apoptosis” value in the series with MDA-MB-231 cells is reported as “did not induce apoptosis”. In series [3], the inhibition at 0.0001 µM stood at 22.1% and the “inhibition of RFC40 enzyme activity after 30 min of incubation” value was “inhibited the enzyme activity in a dose-dependent manner”.
